Reference: ChEMBL document CHEMBL5724914, “Linking interpersonal differences in gut microbiota composition and drug biotransformation activity” (2024)

Columns and labels:
[1] = (§1) The drug is tested on Z-029 corresponding to rat gut metagenome with ENA study accession number: PRJEB37062 and ENA sample accession number: ERS12561828 for biotransformation under anaerobic condition. The drug concentrations were measured over 9 timepoints collected between 0 and 24 hours of incubation by liquid-chromatography-coupled mass spectrometry (LC–MS); details: 2 µM
[2] = as §1, with “on Z-002” for “on Z-029”, “to rabbit” for “to rat”, “number: ERS12561802” for “number: ERS12561828”; details: 2 µM
[3] = human gut metagenome, 24 h, 2 µM
[4] = human gut metagenome, 24 h, 2 µM; remark: listed apart in the source
[5] = human gut metagenome, 24 h, 2 µM; remark: listed apart in the source
[6] = as §1, with “on Z-006” for “on Z-029”, “to mouse” for “to rat”, “number: ERS12561806” for “number: ERS12561828”; details: 2 µM
[7] = as §1, with “Z-014” for “Z-029”, “ERS12561814” for “ERS12561828”; details: 2 µM
[8] = human gut metagenome, 24 h, 2 µM; remark: listed apart in the source
[9] = as §1, with “on WLS-170” for “on Z-029”, “to human” for “to rat”, “number: ERS12561762” for “number: ERS12561828”; details: 2 µM
[10] = as §1, with “on WLS-069” for “on Z-029”, “to human” for “to rat”, “number: ERS12561748” for “number: ERS12561828”; details: 2 µM
[11] = human gut metagenome, 24 h, 2 µM; remark: listed apart in the source
[12] = as §1, with “on WLS-027” for “on Z-029”, “to human” for “to rat”, “number: ERS12561744” for “number: ERS12561828”; details: 2 µM
[13] = human gut metagenome, 24 h, 2 µM; remark: listed apart in the source
[14] = human gut metagenome, 24 h, 2 µM; remark: listed apart in the source
[15] = human gut metagenome, 24 h, 2 µM; remark: listed apart in the source
[16] = as §1, with “on WLS-220” for “on Z-029”, “to human” for “to rat”, “number: ERS12561769” for “number: ERS12561828”; details: 2 µM
[17] = human gut metagenome, 24 h, 2 µM; remark: listed apart in the source
[18] = as §1, with “on WLS-039” for “on Z-029”, “to human” for “to rat”, “number: ERS12561746” for “number: ERS12561828”; details: 2 µM
[19] = as §1, with “Z-008” for “Z-029”, “to” for “to rat gut”, “ERS12561808” for “ERS12561828”; details: 2 µM
[20] = as §1, with “on Z-011” for “on Z-029”, “to mouse” for “to rat”, “number: ERS12561811” for “number: ERS12561828”; details: 2 µM
Also: call rule not given here.

## CCc1nn(CCCN2CCN(c3cccc(Cl)c3)CC2)c(=O)n1CCOc1ccccc1 [NEFAZODONE]
[1]
  Bacterial Biotransformation: Compound NOT metabolized
[2]
  Bacterial Biotransformation: Compound NOT metabolized
[3]
  Bacterial Biotransformation: Compound metabolized
[4]
  Bacterial Biotransformation: Compound metabolized
[5]
  Bacterial Biotransformation: Compound NOT metabolized
[6]
  Bacterial Biotransformation: Compound NOT metabolized
[7]
  Bacterial Biotransformation: Compound NOT metabolized
[8]
  Bacterial Biotransformation: Compound metabolized
[9]
  Bacterial Biotransformation: Compound metabolized
[10]
  Bacterial Biotransformation: Compound metabolized
[11]
  Bacterial Biotransformation: Compound metabolized
[12]
  Bacterial Biotransformation: Compound metabolized
[13]
  Bacterial Biotransformation: Compound metabolized
[14]
  Bacterial Biotransformation: Compound metabolized
[15]
  Bacterial Biotransformation: Compound metabolized
[16]
  Bacterial Biotransformation: Compound metabolized
[17]
  Bacterial Biotransformation: Compound NOT metabolized
[18]
  Bacterial Biotransformation: Compound metabolized
[19]
  Bacterial Biotransformation: Compound NOT metabolized
[20]
  Bacterial Biotransformation: Compound NOT metabolized

## CN1CCOC(c2ccccc2)c2ccccc2C1 (stereo not given) [NEFOPAM]
[1]
  Bacterial Biotransformation: Compound NOT metabolized
[2]
  Bacterial Biotransformation: Compound NOT metabolized
[3]
  Bacterial Biotransformation: Compound NOT metabolized
[4]
  Bacterial Biotransformation: Compound NOT metabolized
[5]
  Bacterial Biotransformation: Compound NOT metabolized
[6]
  Bacterial Biotransformation: Compound NOT metabolized
[7]
  Bacterial Biotransformation: Compound NOT metabolized
[8]
  Bacterial Biotransformation: Compound metabolized
[9]
  Bacterial Biotransformation: Compound NOT metabolized
[10]
  Bacterial Biotransformation: Compound NOT metabolized
[11]
  Bacterial Biotransformation: Compound NOT metabolized
[12]
  Bacterial Biotransformation: Compound metabolized
[13]
  Bacterial Biotransformation: Compound NOT metabolized
[14]
  Bacterial Biotransformation: Compound metabolized
[15]
  Bacterial Biotransformation: Compound metabolized
[16]
  Bacterial Biotransformation: Compound metabolized
[17]
  Bacterial Biotransformation: Compound NOT metabolized
[18]
  Bacterial Biotransformation: Compound NOT metabolized
[19]
  Bacterial Biotransformation: Compound NOT metabolized
[20]
  Bacterial Biotransformation: Compound NOT metabolized

## Cc1ccnc2c1NC(=O)c1cccnc1N2C1CC1 [NEVIRAPINE]
[1]
  Bacterial Biotransformation: Compound NOT metabolized
[2]
  Bacterial Biotransformation: Compound metabolized
[3]
  Bacterial Biotransformation: Compound metabolized
[4]
  Bacterial Biotransformation: Compound NOT metabolized
[5]
  Bacterial Biotransformation: Compound NOT metabolized
[6]
  Bacterial Biotransformation: Compound NOT metabolized
[7]
  Bacterial Biotransformation: Compound NOT metabolized
[8]
  Bacterial Biotransformation: Compound metabolized
[9]
  Bacterial Biotransformation: Compound metabolized
[10]
  Bacterial Biotransformation: Compound NOT metabolized
[11]
  Bacterial Biotransformation: Compound metabolized
[12]
  Bacterial Biotransformation: Compound NOT metabolized
[13]
  Bacterial Biotransformation: Compound metabolized
[14]
  Bacterial Biotransformation: Compound metabolized
[15]
  Bacterial Biotransformation: Compound metabolized
[16]
  Bacterial Biotransformation: Compound metabolized
[17]
  Bacterial Biotransformation: Compound NOT metabolized
[18]
  Bacterial Biotransformation: Compound NOT metabolized
[19]
  Bacterial Biotransformation: Compound NOT metabolized
[20]
  Bacterial Biotransformation: Compound NOT metabolized

## CO[C@]12C[C@@H](COC(=O)c3cncc(Br)c3)CN(C)[C@@H]1Cc1cn(C)c3cccc2c13 [NICERGOLINE]
[1]
  Bacterial Biotransformation: Compound NOT metabolized
[2]
  Bacterial Biotransformation: Compound metabolized
[3]
  Bacterial Biotransformation: Compound NOT metabolized
[4]
  Bacterial Biotransformation: Compound NOT metabolized
[5]
  Bacterial Biotransformation: Compound NOT metabolized
[6]
  Bacterial Biotransformation: Compound metabolized
[7]
  Bacterial Biotransformation: Compound metabolized
[8]
  Bacterial Biotransformation: Compound NOT metabolized
[9]
  Bacterial Biotransformation: Compound NOT metabolized
[10]
  Bacterial Biotransformation: Compound NOT metabolized
[11]
  Bacterial Biotransformation: Compound metabolized
[12]
  Bacterial Biotransformation: Compound metabolized
[13]
  Bacterial Biotransformation: Compound NOT metabolized
[14]
  Bacterial Biotransformation: Compound metabolized
[15]
  Bacterial Biotransformation: Compound NOT metabolized
[16]
  Bacterial Biotransformation: Compound NOT metabolized
[17]
  Bacterial Biotransformation: Compound metabolized
[18]
  Bacterial Biotransformation: Compound metabolized
[19]
  Bacterial Biotransformation: Compound NOT metabolized
[20]
  Bacterial Biotransformation: Compound metabolized

## COc1ccc2c(c1OC)C(=O)O[C@@H]2[C@H]1c2c(cc3c(c2OC)OCO3)CCN1C [NOSCAPINE]
[1]
  Bacterial Biotransformation: Compound NOT metabolized
[2]
  Bacterial Biotransformation: Compound metabolized
[3]
  Bacterial Biotransformation: Compound metabolized
[4]
  Bacterial Biotransformation: Compound NOT metabolized
[5]
  Bacterial Biotransformation: Compound NOT metabolized
[6]
  Bacterial Biotransformation: Compound NOT metabolized
[7]
  Bacterial Biotransformation: Compound metabolized
[8]
  Bacterial Biotransformation: Compound NOT metabolized
[9]
  Bacterial Biotransformation: Compound metabolized
[10]
  Bacterial Biotransformation: Compound metabolized
[11]
  Bacterial Biotransformation: Compound metabolized
[12]
  Bacterial Biotransformation: Compound NOT metabolized
[13]
  Bacterial Biotransformation: Compound metabolized
[14]
  Bacterial Biotransformation: Compound metabolized
[15]
  Bacterial Biotransformation: Compound metabolized
[16]
  Bacterial Biotransformation: Compound metabolized
[17]
  Bacterial Biotransformation: Compound NOT metabolized
[18]
  Bacterial Biotransformation: Compound NOT metabolized
[19]
  Bacterial Biotransformation: Compound NOT metabolized
[20]
  Bacterial Biotransformation: Compound metabolized

## CCCc1nc(C(C)(C)O)c(C(=O)OCc2oc(=O)oc2C)n1Cc1ccc(-c2ccccc2-c2nnn[nH]2)cc1 [OLMESARTAN MEDOXOMIL]
[1]
  Bacterial Biotransformation: Compound NOT metabolized
[2]
  Bacterial Biotransformation: Compound metabolized
[3]
  Bacterial Biotransformation: Compound NOT metabolized
[4]
  Bacterial Biotransformation: Compound metabolized
[5]
  Bacterial Biotransformation: Compound metabolized
[6]
  Bacterial Biotransformation: Compound metabolized
[7]
  Bacterial Biotransformation: Compound NOT metabolized
[8]
  Bacterial Biotransformation: Compound metabolized
[9]
  Bacterial Biotransformation: Compound metabolized
[10]
  Bacterial Biotransformation: Compound metabolized
[11]
  Bacterial Biotransformation: Compound metabolized
[12]
  Bacterial Biotransformation: Compound metabolized
[13]
  Bacterial Biotransformation: Compound metabolized
[14]
  Bacterial Biotransformation: Compound metabolized
[15]
  Bacterial Biotransformation: Compound metabolized
[16]
  Bacterial Biotransformation: Compound metabolized
[17]
  Bacterial Biotransformation: Compound metabolized
[18]
  Bacterial Biotransformation: Compound metabolized
[19]
  Bacterial Biotransformation: Compound metabolized
[20]
  Bacterial Biotransformation: Compound NOT metabolized

## NC(=O)N1c2ccccc2CC(=O)c2ccccc21 [OXCARBAZEPINE]
[1]
  Bacterial Biotransformation: Compound NOT metabolized
[2]
  Bacterial Biotransformation: Compound metabolized
[3]
  Bacterial Biotransformation: Compound NOT metabolized
[4]
  Bacterial Biotransformation: Compound NOT metabolized
[5]
  Bacterial Biotransformation: Compound NOT metabolized
[6]
  Bacterial Biotransformation: Compound NOT metabolized
[7]
  Bacterial Biotransformation: Compound NOT metabolized
[8]
  Bacterial Biotransformation: Compound NOT metabolized
[9]
  Bacterial Biotransformation: Compound NOT metabolized
[10]
  Bacterial Biotransformation: Compound NOT metabolized
[11]
  Bacterial Biotransformation: Compound NOT metabolized
[12]
  Bacterial Biotransformation: Compound NOT metabolized
[13]
  Bacterial Biotransformation: Compound NOT metabolized
[14]
  Bacterial Biotransformation: Compound NOT metabolized
[15]
  Bacterial Biotransformation: Compound NOT metabolized
[16]
  Bacterial Biotransformation: Compound NOT metabolized
[17]
  Bacterial Biotransformation: Compound metabolized
[18]
  Bacterial Biotransformation: Compound NOT metabolized
[19]
  Bacterial Biotransformation: Compound NOT metabolized
[20]
  Bacterial Biotransformation: Compound NOT metabolized

## CCN(CC)CC#CCOC(=O)C(O)(c1ccccc1)C1CCCCC1.Cl (stereo not given) [OXYBUTYNIN CHLORIDE]
[1]
  Bacterial Biotransformation: Compound NOT metabolized
[2]
  Bacterial Biotransformation: Compound metabolized
[3]
  Bacterial Biotransformation: Compound metabolized
[4]
  Bacterial Biotransformation: Compound metabolized
[5]
  Bacterial Biotransformation: Compound metabolized
[6]
  Bacterial Biotransformation: Compound NOT metabolized
[7]
  Bacterial Biotransformation: Compound NOT metabolized
[8]
  Bacterial Biotransformation: Compound metabolized
[9]
  Bacterial Biotransformation: Compound metabolized
[10]
  Bacterial Biotransformation: Compound metabolized
[11]
  Bacterial Biotransformation: Compound metabolized
[12]
  Bacterial Biotransformation: Compound metabolized
[13]
  Bacterial Biotransformation: Compound metabolized
[14]
  Bacterial Biotransformation: Compound metabolized
[15]
  Bacterial Biotransformation: Compound metabolized
[16]
  Bacterial Biotransformation: Compound metabolized
[17]
  Bacterial Biotransformation: Compound metabolized
[18]
  Bacterial Biotransformation: Compound metabolized
[19]
  Bacterial Biotransformation: Compound NOT metabolized
[20]
  Bacterial Biotransformation: Compound NOT metabolized
